From US8853246B2 (Dow AgroSciences LLC, priority 2009, dated 2014)
Read-outs that look alike come from different tables or passages of the source.

Experiments:
[1] = test system: Sweetpotato Whitefly-Crawler (Bemisia Tabaci); assay: Insecticidal test for sweetpotato whitefly-crawler in foliar spray assay (col. BEMITA); assay type: in vivo; conditions: Bemisia tabaci, read-out: BEMITA 200 ppm (Corrected % Control, rating)
Procedure, shortened: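 Cotton plants (one 3-5 cm true leaf) infested with whitefly eggs (100-300/plant), held 5-6 days at 82° F, 50% RH until crawlers developed. Sprayed to runoff at 200 ppm (acetone stock diluted in 0.025% Tween 20), four plants per treatment. Live nymphs counted after 8-9 days; % control by Abbott's correction versus solvent check.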

[2] = test system: Green Peach Aphid (Myzus Persicae); assay: Insecticidal test for green peach aphid in foliar spray assay (col. MYZUPE); assay type: in vivo; conditions: Myzus persicae, 72 h, read-out: MYZUPE 200 ppm (Corrected % Control, rating)
Procedure, shortened: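 Cabbage seedlings with 2-3 true leaves, infested with 20-50 wingless adult and nymph aphids one day earlier, sprayed to runoff at 200 ppm (acetone/methanol stock diluted in 0.025% Tween 20), four pots per treatment. After 3 days at ~25 °C, 40% RH, live aphids counted; corrected % control versus solvent-sprayed plants.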

| Structure (SMILES) | pest or weed control at 200 ppm ([1]; sweetpotato whitefly-crawler) [%] | melting point [°C] | pest or weed control at 200 ppm ([2]; green peach aphid) [%] | pest or weed control at 200 ppm ([1]; Abbott's correction formula) [%] | pest or weed control at 200 ppm ([2]; Abbott's correction formula) [%] |
| --- | --- | --- | --- | --- | --- |
| CSCC(C)(C)C(=O)N(C)c1sc(-c2cccnc2)nc1Cl [Compound 264] | 80 to 100 | 103 to 106 | 80 to 100 |  |  |
| C=CC[S+]([O-])CC(C)C(=O)Nc1sc(-c2cccnc2)nc1C (stereo not drawn) [Compound 225] | 80 to 100 | 147 to 149 | 80 to 100 |  |  |
| CN(C(=O)C(C)(C)C[S+](C)[O-])c1cnc(-c2cccnc2)s1 (stereo not drawn) [Compound 80] | 80 to 100 | 118 to 122 | 80 to 100 |  |  |
| CSC(C)(C)CC(=O)Nc1sc(-c2cncc(F)c2)nc1C [Compound 217] | < 80 | 123 to 126 | 80 to 100 |  |  |
| CSCC(=O)N(C)c1sc(-c2cccnc2)nc1Cl [Compound 369] | 80 to 100 | 111 to 114 | 80 to 100 |  |  |
| CSC(C)(C)CC(=O)Nc1sc(-c2cccnc2)nc1Cl [Compound 488] |  | 113 to 115 |  | 80 to 100 | 80 to 100 |
| Cc1nc(-c2cncc(F)c2)sc1N(C)C(=S)NC1CC1 [Compound 519, 3-cyclopropyl-1-[2-(5-fluoro-pyridin-3-yl)-4-methyl-thiazol-5-yl]-1-methyl-thiourea] |  | 117 to 119 |  | < 80 | 80 to 100 |
| CC(C[S+](C)[O-])C(=O)Nc1sc(-c2cncc(F)c2)nc1Br (stereo not drawn) [Compound 306] | < 80 | 172 to 175 | 80 to 100 |  |  |
| Cc1nc(-c2cccnc2)sc1NC(=O)CCCCl [Compound 209] | < 80 | 144 to 147 | 80 to 100 |  |  |
| Cc1nc(-c2cncc(F)c2)sc1NC(=O)CCS(C)(=O)=O [Compound 148] | < 80 | 230 to 232 | 80 to 100 |  |  |
| CSCC(=O)Nc1sc(-c2cccnc2)nc1C [Compound 372] | 80 to 100 | 164 to 167 | 80 to 100 |  |  |
| Cc1nc(-c2cccnc2)sc1NC(=O)OCC(F)(F)F [Compound 380] | < 80 | 170 to 178 | < 80 |  |  |
| CSCCC(=O)N(C)c1sc(-c2cncc(F)c2)nc1C#N [Compound 503] |  | 97 to 98 |  | < 80 | < 80 |
| CSC(C)CC(=O)Nc1sc(-c2cccnc2)nc1Cl (stereo not drawn) [Compound 487] |  | 120 to 125 |  | 80 to 100 | 80 to 100 |
| CN(C(=O)OC(C)(C)C)c1sc(-c2cncc(F)c2)nc1Cl [Compound 476] |  | 119 to 120 |  | < 80 | 80 to 100 |
| CCN(C(=O)C(C)CSC)c1sc(-c2cccnc2)nc1Cl (stereo not drawn) [Compound 316, N-(4-chloro-2-pyridin-3-yl-thiazol-5-yl)-N-ethyl-2-methyl-3-methylsulfanyl-propionamide] | < 80 | 79 to 81 | 80 to 100 |  |  |
| Cc1nc(-c2ccc(Cl)nc2)sc1NC(=O)OC(C)(C)C [Compound 149] | < 80 | 154 to 157 | < 80 |  |  |
| CN(C(=O)C(C)(C)C)c1cnc(-c2cncc(F)c2)s1 [Compound 33] | 80 to 100 | 153 to 155 | < 80 |  |  |
| Cc1nc(-c2cncc(F)c2)sc1NC(=O)CC[S+](C)[O-] (stereo not drawn) [Compound 147] | < 80 | 181 to 184 | 80 to 100 |  |  |
| CN(C(=O)CC(F)(F)F)c1cnc(-c2cccnc2)s1 [Compound 25] | < 80 | 126 to 128 | 80 to 100 |  |  |
| COCCOC(=O)Nc1sc(-c2cccnc2)nc1C [Compound 379] | < 80 | 131 to 134 | 80 to 100 |  |  |
| CSCCC(=O)Nc1sc(-c2cccnc2)nc1C(F)(F)F [Compound 133] | < 80 | 131 to 133 | 80 to 100 |  |  |
| Cc1nc(-c2cncc(F)c2)sc1NC(=O)C(C)C/S(C)=N\C#N (stereo not drawn) [Compound 163] | < 80 | 75 to 81 | 80 to 100 |  |  |
| Cc1nc(-c2cncc(Br)c2)sc1N(C)C(=O)OC(C)(C)C [Compound 251] | 80 to 100 | 74 to 76 | < 80 |  |  |

| Structure (SMILES) | pest or weed control at 200 ppm ([1]; sweetpotato whitefly-crawler) [%] | melting point [°C] | pest or weed control at 200 ppm ([2]; green peach aphid) [%] | pest or weed control at 200 ppm ([1]; Abbott's correction formula) [%] | pest or weed control at 200 ppm ([2]; Abbott's correction formula) [%] |
| --- | --- | --- | --- | --- | --- |
| Cc1nc(-c2cccnc2)sc1NC(=O)OCc1ccccc1 [Compound 201] | < 80 | 137 to 139 | < 80 |  |  |
| CSCC(C)(C)C(=O)N(C)c1cnc(-c2ccc(Cl)nc2)s1 [Compound 68] | 80 to 100 | 104 to 108 | 80 to 100 |  |  |
| CCCCOC(=O)Nc1sc(-c2cccnc2)nc1C [Compound 377] | 80 to 100 | 108 to 110 | < 80 |  |  |
| CSCC(C)C(=O)Nc1sc(-c2cccnc2)nc1C (stereo not drawn) [Compound 56] | 80 to 100 | 132 to 136 | 80 to 100 |  |  |
| COC(=O)CCC(=O)Nc1sc(-c2cccnc2)nc1C [Compound 197] | < 80 | 151 to 153 | 80 to 100 |  |  |
| CC(C)C(=O)Nc1sc(-c2cccnc2)nc1C(F)(F)F [Compound 136] | < 80 | 130 to 131 | 80 to 100 |  |  |
| CC(C)C(=O)N(C)c1cnc(-c2cccnc2)s1 [Compound 24] | 80 to 100 | 113 to 114 | 80 to 100 |  |  |
| CC(=O)N(C)c1sc(-c2cccnc2)nc1C [Compound 193] | 80 to 100 | 127 to 130 | 80 to 100 |  |  |
| CC(C[S+](C)[O-])C(=O)N(C)c1cnc(-c2cccnc2)s1 (stereo not drawn) [Compound 79] | < 80 | 135 to 140 | 80 to 100 |  |  |
| CN(C(=O)c1cnn(C)c1)c1sc(-c2cncc(F)c2)nc1Cl [Compound 268] | 80 to 100 | 151 to 155 | 80 to 100 |  |  |
| CN(C(=O)CCS(C)(=O)=O)c1sc(-c2ccc(F)nc2)nc1Cl [Compound 470] |  | 42 to 46 |  | < 80 | 80 to 100 |
| CSCCC(=O)N(C)c1cnc(-c2cncc(F)c2)s1 [Compound 30, N-[2-(5-fluoro-pyridin-3-yl)-thiazol-5-yl]-N-methyl-3-methylsulfanyl-propionamide] | < 80 | 111 to 114 | 80 to 100 |  |  |
| CSCCC(=O)Nc1sc(-c2cccnc2)nc1C [Compound 55] | 80 to 100 | 136 to 139 | 80 to 100 |  |  |
| CN(C(=O)NCC[S+](C)[O-])c1cnc(-c2cncc(F)c2)s1 (stereo not drawn) [Compound 82] | < 80 | 202 to 203 | 80 to 100 |  |  |
| CC(C)(C)OC(=O)Nc1sc(-c2cncc(F)c2)nc1Br [Compound 297] | < 80 | 164 to 166 | < 80 |  |  |
| CCc1cc(C(=O)Nc2sc(-c3cccnc3)nc2C)no1 [Compound 387] | 80 to 100 | 129 to 130 | < 80 |  |  |
| CN(C(=O)CCS(C)(=O)=O)c1sc(-c2cncc(F)c2)nc1Br [Compound 455] |  | 198 to 201 |  | 80 to 100 | 80 to 100 |
| CS[C@H]1CC1C(=O)Nc1sc(-c2cncc(F)c2)nc1C (stereo partly drawn) [Compound 220] | 80 to 100 | 206 to 212 | 80 to 100 |  |  |
| CCc1cc(C(=O)N(C)c2sc(-c3cccnc3)nc2Cl)no1 [Compound 383] | 80 to 100 | 121 to 124 | < 80 |  |  |
| CC(CS(C)(=O)=O)C(=O)N(C)c1sc(-c2cnc(Cl)c(F)c2)nc1Cl (stereo not drawn) [Compound 475] |  | 55 to 61 |  | < 80 | < 80 |
| CCSCC(=O)Nc1sc(-c2cccnc2)nc1C [Compound 373] | 80 to 100 | 157 to 158 | 80 to 100 |  |  |
| CC(=O)N(C)c1cnc(-c2cccnc2)s1 [Compound 22] | < 80 | 162 to 163 | < 80 |  |  |
| Cc1nc(-c2cccnc2)sc1NC(=O)C(C)C[S+](C)[O-] (stereo not drawn) [Compound 92] | < 80 | 160 to 163 | 80 to 100 |  |  |
| Cc1nc(-c2cccnc2)sc1NC(=O)[C@H](C)NC(=O)OC(C)(C)C [Compound 187] | < 80 | 166 to 169 | 80 to 100 |  |  |
